Counter-ions that a name gives are not always drawn.

The test system of the first assay is Acinetobacter baumannii ATCC17961. Briefly: Antimicrobial susceptibility testing: 90% growth inhibitory concentration (IC90) determination. It is filed as cell-based. The settings on record: 90% growth inhibitory concentration; Iso-Sensitest broth, optical density at 600 nm over 16h, 35±2° C.; read-out: AB ATCC 17961 IC90. The method in brief: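 Compounds were twofold serially diluted (e.g. 50–0.097 μM final) in Iso-Sensitest broth with ~5×10^5 CFU/ml inoculum and incubated at 35±2 °C. OD600 was read every 20 min over 16 h. IC90 was derived from growth inhibition during logarithmic growth.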
On to `CN=S(C)(=O)c1ccc(Nc2nccn3c(-c4ccc(OC)c(F)c4F)cnc23)cc1C` (stereo not drawn) [Example 66, 3-(2,3-difluoro-4-methoxyphenyl)-N-(4-(N,S-dimethylsulfonimidoyl)-3-methylphenyl)imidazo[1,2-a]pyrazin-8-amine], for which the 90% effect concentration (IC90) (usually the concentration needed for an effect of 90%) came out at 160 nM.

Consider `CN=S(C)(=O)c1ccc(Nc2nccn3c(-c4ccc(OC)c(F)c4F)cnc23)cc1C` (stereo not drawn) [Example 22, 3-(2,3-difluoro-4-methoxy-phenyl)-N-[4-(N,S-dimethylsulfonimidoyl)-3-methyl-phenyl]imidazo[l,2-a]pyrazin-8-amine], for which the IC90 amounted to 84 nM. On to `CCS(=O)(=NC)c1ccc(Nc2nccn3c(-c4ccc(OC)c(F)c4F)cnc23)cc1Cl` (stereo not drawn) [Example 24, (2-chloro-4-((3-(2,3-difluoro-4-methoxyphenyl)imidazo[1,2-a]pyrazin-s-yl)amino)phenyl)(ethyl)(methylimino)-l6-sulfanone], for which the IC90 is 170 nM.

The same assay, now with this note: Acinetobacter baumannii, ATCC17961, 16 h, 90% growth inhibitory concentration; Iso-Sensitest broth, optical density at 600 nm over 16h, 35±2° C.; read-out: AB ATCC 17961 IC90.
Take `COc1ccc(-c2cnc3c(Nc4ccc(N5CCC(CN)CC5)c(Cl)c4)nccn23)c(F)c1F` [Example 115, N-(4-(4-(aminomethyl)piperidin-1-yl)-3-chlorophenyl)-3-(2,3-difluoro-4-methoxyphenyl) imidazo [1,2-a]pyrazin-8-amine hydrochloride]: the IC90 is 490 nM. For `CN=S(=O)(c1ccc(Nc2nccn3c(-c4ccc(OC)c(F)c4F)cnc23)cc1C)N(C)C` (stereo not drawn) [Example 31, 3-(2,3-difluoro-4-methoxy-phenyl)-N-[4-[S-(dimethylamino)-N-methyl-sulfonimidoyl]-3-methyl-phenyl]imidazo[1,2-a]pyrazin-8-amine], the concentration for an effect of 90% (IC90) came to 500 nM. On to `CCc1cc(Nc2nccn3c(-c4ccc(OC)c(F)c4F)cnc23)ccc1S(=O)(=O)N1CCN(C(=O)[C@@H]2CCN(C(=O)[C@@H]3C[C@@H](O)CN3)C2)CC1` [Example 111, (4-((4-((3-(2,3-difluoro-4-methoxyphenyl)imidazo[1,2-a]pyrazin-s-yl)amino)-2-ethylphenyl)sulfonyl)piperazin-1-yl)((R)-1-((2S,4R)-4-hydroxypyrrolidine-2-carbonyl)pyrrolidin-3-yl)methanone hydrochloride], for which the IC90 is 870 nM.

(Values after patent US20230141403A1 (Hoffmann-La Roche Inc., priority 2020, published 2023).)
